PMC10920384 (Heliyon, 2024)
Read-outs that look alike come from different tables or passages of the source. Marks after values point to notes of the source that are not given here.

How the values were obtained:
[1] = target: dipeptidyl peptidase-IV (DPP-IV) from porcine kidney (Sus scrofa, UniProt P22411); assay: Dipeptidyl peptidase-IV; type: biochemical; conditions: for inhibition at 50 µg/mL: read-out: % Inhibition at 50 μg/mL (DPP-IV)
[2] = test system: α-glucosidase from Saccharomyces cerevisiae; assay: α-Glucosidase inhibitory assay; type: biochemical; conditions: mean ± SD, N = 3

Chain of dipeptidyl peptidase-IV (DPP-IV) from porcine kidney (P22411 whole entry): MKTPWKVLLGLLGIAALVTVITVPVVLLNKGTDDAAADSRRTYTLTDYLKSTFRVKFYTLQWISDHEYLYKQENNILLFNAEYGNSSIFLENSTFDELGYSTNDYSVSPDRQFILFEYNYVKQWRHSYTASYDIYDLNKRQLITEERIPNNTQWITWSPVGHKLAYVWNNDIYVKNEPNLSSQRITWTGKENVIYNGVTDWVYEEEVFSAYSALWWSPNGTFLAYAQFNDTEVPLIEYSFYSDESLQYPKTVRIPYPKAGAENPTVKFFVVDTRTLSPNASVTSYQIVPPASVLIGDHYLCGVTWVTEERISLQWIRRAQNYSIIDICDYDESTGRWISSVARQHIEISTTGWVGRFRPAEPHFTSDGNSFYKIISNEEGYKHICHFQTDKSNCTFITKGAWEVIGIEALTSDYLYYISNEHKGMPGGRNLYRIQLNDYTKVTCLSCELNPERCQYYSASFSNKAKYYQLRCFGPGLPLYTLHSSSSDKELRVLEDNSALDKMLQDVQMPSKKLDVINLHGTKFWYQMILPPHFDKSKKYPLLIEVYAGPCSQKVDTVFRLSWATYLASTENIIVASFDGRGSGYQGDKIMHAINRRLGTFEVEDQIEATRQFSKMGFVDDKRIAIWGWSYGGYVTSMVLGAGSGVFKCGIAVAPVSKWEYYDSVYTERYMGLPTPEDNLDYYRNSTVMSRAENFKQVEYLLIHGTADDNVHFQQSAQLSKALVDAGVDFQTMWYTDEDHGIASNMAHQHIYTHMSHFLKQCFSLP

Structure (SMILES)	IC50 [1]	inhibition at 50 µg/mL [1]	% Inhibition at 10 μg/mL (α-glucosidase) [2]	IC50 (α-glucosidase inhibition) [2]	% Inhibition at 50 μg/mL (DPP-IV) ([1]; mean ± SD, N = 3)	IC50 (DPP-IV inhibition) ([1]; mean ± SD, N = 3)	IC50 ([1]; read-out: IC50 (DPP-IV inhibition), mean ± SD, N = 3)
O=C1C[C@@H](c2ccccc2)Oc2cc(O)cc(O)c21 [Compound 8, pinocembrin]	> 195 µM	30.4 ± 1.9%	37.30 ± 1.03%	>10 µg/mL			
COc1cc2c(c(O)c1OC)C(=O)C[C@@H](c1ccccc1)O2 [Compound 10, onysilin]			28.13 ± 1.46%	>10 µg/mL	24.54 ± 2.38%	>50 µg/mL	
COc1cc(OC)c(C(=O)/C=C/c2ccccc2)c(O)c1O [Compound 4, 2′,3′-dihydroxy-4′,6′-dimethoxychalcone]			38.04 ± 1.10%	>10 µg/mL	97.37 ± 1.01 ^a %		28.7 µM
CC(C)=CCCC(C)=CCCC(C)=CCc1c[nH]c2ccccc12 [Compound 9, 3-Farnesyl indole]	> 156 µM	27.1 ± 0.73%	18.40 ± 1.39%	>10 µg/mL			
O=c1cc(-c2ccccc2)oc2cc(O)cc(O)c12 [Compound 5, chrysin]	> 197 µM	41.2 ± 1.03%	27.31 ± 1.04%	>10 µg/mL			
CC[C@H](C)[C@H](N)C(=O)N1CCC[C@H]1C(=O)N[C@H](C(=O)O)[C@@H](C)CC [Diprotin A, diprotin A, reference compound]		77.6 ± 1.18%					
COc1cc(OC)c2c(c1O)OC(c1ccccc1)CC2=O (stereo not shown) [Compound 7, 8-hydroxy-5,7-dimethoxyflavanone]	> 166 µM	27.8 ± 2.96%	34.57 ± 1.43%	>10 µg/mL			
